# According to paper PMC10611578, “Aβ1-6A2V(D) peptide, effective on Aβ aggregation, inhibits tau misfolding and protects the brain after traumatic brain injury” (Molecular Psychiatry, 2023):
# Square brackets hold non-standard residues; d marks the D form. Peptide text beside a SMILES is read from it.
# Columns and labels:
# [1] = tested on: tau (P301L mouse brain homogenate); experiment: Western blot of total tau level in P301L brain lysate; assay type: biochemical, human tau with P301L mutation, JNPL3 mice; settings: 50 µM, 2 h at 25 °C, 30 µg protein/100 µL, PBS pH 7.4, DAKO/actin band; mean ± SD, N = 3, p < 0.05
# Excerpt: Male JNPL3 mice expressing 0N4R human tau with the P301L mutation (P301L) were obtained from Taconic Biosciences (New York, USA) (Tau Model 2508). Controls were non-transgenic (Non-tg) male mice with the same mixed C57BL/6, DBA/2, SW genetic background as P301L mice. Triple transgenic mice harboring human PS1(M146 V), APP(SW), and MAPT(P301L) transgenes, referred to as 3xTg-AD, were kindly provided by Dr. Oddo [34]. Male and female C57BL/6 J mice, referred to as wild type (WT), were purchased from Envigo (Italy).
# Fig. 2 Effect of Aβ1-6A2V-TAT(D) on the toxicity caused in C. elegans by misfolded tau in P301L and TBI brain homogenates. A Brains from P301L mice were homogenized in 10 mM PBS, pH 7.4, and given to worms alone or in the presence of Aβ1-6A2V-TAT(D). B Worms were administered with brain homogenate (30 µg protein/100 worms/100 µL) in the absence or presence of Aβ1-6A2V-TAT(D) (0-200 µM). […] E Representative western blotting showing the total level of tau and tau quantification expressed as the mean volume of the DAKO band immunoreactivity/actin band. […] The reaction was then stopped, and samples were analyzed by western blot. […]
# Lysates from brain homogenates of P301L mice (30 µg protein/100 µL) incubated for 2 h at 25°C with 50 µM Aβ1-6A2V-TAT(D), 50 µM Aβ1-6A2V(D), 50 µM TAT or 10 mM PBS, pH 7.4, were analyzed by immunoblotting using 10% SDS-PAGE gel and Western blotting analysis. […]
# [2] = tested on: tau (P301L mouse brain homogenate), proteinase K; experiment: Proteolysis of tau in P301L brain homogenate; assay type: biochemical, human tau with P301L mutation, JNPL3 mice; settings: 50 µM Aβ1-6A2V-TAT(D), P301L brain homogenate 30 µg protein/100 µL, 30 min at 37 °C with proteinase K (2.5–10 µg/ml)
# C. elegans = settings: C. elegans; ref [18]; cited from earlier work
structure (smiles),measurement,setting,value
CC(C)[C@@H](NC(=O)[C@H](N)CC(=O)O)C(=O)N[C@H](CCC(=O)O)C(=O)N[C@H](Cc1ccccc1)C(=O)N[C@H](CCCNC(=N)N)C(=O)N[C@H](Cc1c[nH]cn1)C(=O)NCC(=O)NCC(=O)NCC(=O)NCC(=O)NCC(=O)N[C@H](CCCNC(=N)N)C(=O)N[C@H](CCCCN)C(=O)N[C@H](CCCCN)C(=O)N[C@H](CCCNC(=N)N)C(=O)N[C@H](CCCNC(=N)N)C(=O)N[C@H](CCC(N)=O)C(=O)N[C@H](CCCNC(=N)N)C(=O)N[C@H](CCCNC(=N)N)C(=O)N[C@H](CCCNC(=N)N)C(=O)O [Aβ1-6A2V-TAT(D)] (H-[dD][dV][dE][dF][dR][dH]GGGGG[dR][dK][dK][dR][dR][dQ][dR][dR][dR]-OH; N-terminus assumed),Total tau protein level in P301L brain homogenate,[1],significantly reduced the tau protein level
same,Susceptibility of tau to degradation by proteases,[2],"increased the susceptibility of tau to degradation by proteases, and this was particularly evident in the presence of proteinase K"
same,Passage through the worm's membrane,C. elegans,"only in the presence of the TAT sequence, Aβ1-6A2V(D) can pass through the worm’s membrane"
